Like-named read-outs stand apart in the source and are kept apart here.
System: P. aeruginosa clinical isolates
Assay type: cell-based, Pseudomonas aeruginosa
Conditions: for % Growth: 50ug/mL
Protocol: Percent growth was calculated by dividing the OD600 of fluorofolin antibiotic-treated wells by that of vehicle-only wells.

C[C@@H](O)[C@H]1C(=O)N2C(C(=O)O)=C(S[C@@H]3CN[C@H](C(=O)N(C)C)C3)[C@H](C)[C@H]12 [meropenem]
clinical isolates resistant (77 P. aeruginosa clinical isolates (55 CDC/FDA, 22 blood), 50 μg ml^−1, growth inhibition >80% = sensitive): 74.0%
% Growth (Isolate# 1): 113.227%
% Growth (Isolate# 2): 104.859%
% Growth (Isolate# 3): 93.4328%
% Growth (Isolate# 4): 45.5006%
% Growth (Isolate# 5): 93.4656%
% Growth (Isolate# 6): 77.5947%
% Growth (Isolate# 7): 101.901%
% Growth (Isolate# 8): 45.9194%
% Growth (Isolate# 9): 53.5808%
% Growth (Isolate# 10): 5.367%
% Growth (Isolate# 11): 99.5105%
% Growth (Isolate# 12): 98.7175%
% Growth (Isolate# 13): 37.9571%
% Growth (Isolate# 14): 104.583%
% Growth (Isolate# 15): 111.823%
% Growth (Isolate# 16): 82.8716%
% Growth (Isolate# 17): 101.338%
% Growth (Isolate# 18): 69.0131%
% Growth (Isolate# 19): 139.474%
% Growth (Isolate# 20): 102.365%
% Growth (Isolate# 21): 105.977%
% Growth (Isolate# 22): 100%
% Growth (Isolate# 23): 99.084%
% Growth (Isolate# 24): 101.66%
% Growth (Isolate# 25): 0.3832%
% Growth (Isolate# 26): 108.084%
% Growth (Isolate# 27): 90.2732%
% Growth (Isolate# 28): 50.4713%
% Growth (Isolate# 29): 81.8075%
% Growth (Isolate# 30): 25.5041%
% Growth (Isolate# 31): 2.581%
% Growth (Isolate# 32): 49.1417%
% Growth (Isolate# 33): 0%
% Growth (Isolate# 34): 7.796%
% Growth (Isolate# 35): 0.5421%
% Growth (Isolate# 36): 34.6796%
% Growth (Isolate# 37): 97.561%
% Growth (Isolate# 38): 159.815%
% Growth (Isolate# 39): 38.9532%
% Growth (Isolate# 40): 99.0807%
% Growth (Isolate# 41): 94.6179%
% Growth (Isolate# 42): 57.1194%
% Growth (Isolate# 43): 47.1218%
% Growth (Isolate# 44): 108.201%
% Growth (Isolate# 45): 95.4718%
% Growth (Isolate# 46): 98.3594%
% Growth (Isolate# 47): 114.345%
% Growth (Isolate# 48): 88.9096%
% Growth (Isolate# 49): 96.2021%
% Growth (Isolate# 50): 122.491%
% Growth (Isolate# 51): 46.991%
% Growth (Isolate# 52): 2.293%
% Growth (Isolate# 53): 3.543%
% Growth (Isolate# 54): 4.738%
% Growth (Isolate# 55): 0%
% Growth (Isolate# 56): 121.285%
% Growth (Isolate# 57): 61.1775%
% Growth (Isolate# 58): 74.7799%
% Growth (Isolate# 59): 114.529%
% Growth (Isolate# 60): 144.06%
% Growth (Isolate# 61): 63.8412%
% Growth (Isolate# 62): 95.6203%
% Growth (Isolate# 63): 0%
% Growth (Isolate# 64): 0.5899%
% Growth (Isolate# 65): 0.9518%
% Growth (Isolate# 66): 19.8024%
% Growth (Isolate# 67): 10.308%
% Growth (Isolate# 68): 0.6936%
% Growth (Isolate# 69): 5.952%
% Growth (Isolate# 70): 25.3374%
% Growth (Isolate# 71): 98.2336%
% Growth (Isolate# 72): 90.6634%
% Growth (Isolate# 73): 0%
% Growth (Isolate# 74): 128.066%
% Growth (Isolate# 75): 2.406%
% Growth (Isolate# 76): 11.0259%
% Growth (Isolate# 77): 28.4071%

Source: publication PMC11087268, “A folate inhibitor exploits metabolic differences in Pseudomonas aeruginosa for narrow-spectrum targeting” (Nature Microbiology, 2024)
